{"source": "the supplement of paper PMC12463676", "about": "“Small-molecule dissolution of stress granules by redox modulation benefits ALS models” (Nature Chemical Biology, 2025);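 further: each temperature applied for 3 min, abundance score taken as mean log2 fold change at the two lowest temperatures, z-score obtained by mean subtraction and division by SD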"}
{"compound": "O=[As]([O-])(O)O.[K+] [potassium arsenate]", "assay": "thermal stability z-score vs DMSO; higher = more thermally stabilized by treatment", "settings": "HeLa; arsenate concentration 1 mM", "method": "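Cellular thermal proteome profiling in HeLa cells treated with 1 mM arsenate for 1 h (DMSO pretreatment), heated to ten temperatures (37-66.3 °C). Soluble protein was quantified by TMT mass spectrometry relative to DMSO controls; the thermal stability score was transformed to a z-score; mean of n = 3 experiments.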"}
{"target": "KIAA1522 (UniProt Q9P206)", "thermal stability z-score": 0.286}
{"target": "ELP6 (UniProt Q0PNE2)", "sequence (Q0PNE2 whole entry)": "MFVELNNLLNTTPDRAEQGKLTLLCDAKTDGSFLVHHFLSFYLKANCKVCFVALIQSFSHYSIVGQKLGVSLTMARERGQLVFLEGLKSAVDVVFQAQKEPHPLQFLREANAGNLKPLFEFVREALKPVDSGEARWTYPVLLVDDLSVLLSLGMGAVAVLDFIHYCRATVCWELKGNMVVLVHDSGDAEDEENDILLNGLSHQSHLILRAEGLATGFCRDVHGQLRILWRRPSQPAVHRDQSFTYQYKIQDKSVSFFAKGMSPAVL", "thermal stability z-score": 0.998}
{"target": "LSM4 (UniProt Q9Y4Z0)", "sequence (Q9Y4Z0 whole entry)": "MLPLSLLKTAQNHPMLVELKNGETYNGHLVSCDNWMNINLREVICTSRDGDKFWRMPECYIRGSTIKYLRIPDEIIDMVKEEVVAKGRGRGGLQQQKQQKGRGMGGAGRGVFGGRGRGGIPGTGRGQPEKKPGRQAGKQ", "thermal stability z-score": 0.216}
{"target": "TOLLIP (UniProt Q9H0E2)", "thermal stability z-score": -0.313}
{"target": "TXNDC15 (UniProt Q96J42)", "sequence (Q96J42 whole entry)": "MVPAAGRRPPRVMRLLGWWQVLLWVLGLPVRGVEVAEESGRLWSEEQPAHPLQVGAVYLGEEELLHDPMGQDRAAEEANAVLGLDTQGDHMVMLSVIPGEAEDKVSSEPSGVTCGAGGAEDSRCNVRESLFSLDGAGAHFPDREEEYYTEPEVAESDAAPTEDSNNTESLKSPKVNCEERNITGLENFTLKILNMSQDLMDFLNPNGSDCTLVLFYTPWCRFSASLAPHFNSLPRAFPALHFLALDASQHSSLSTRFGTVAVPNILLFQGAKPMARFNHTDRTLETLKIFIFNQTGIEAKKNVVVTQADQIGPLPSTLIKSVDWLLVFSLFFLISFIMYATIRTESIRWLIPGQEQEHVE", "thermal stability z-score": 1.16}
{"target": "PGP (UniProt A6NDG6)", "thermal stability z-score": -0.245}
{"target": "GOLGA4 (UniProt Q13439)", "thermal stability z-score": 0.774}
{"target": "TP53BP1 (UniProt Q12888)", "sequence (Q12888 whole entry)": "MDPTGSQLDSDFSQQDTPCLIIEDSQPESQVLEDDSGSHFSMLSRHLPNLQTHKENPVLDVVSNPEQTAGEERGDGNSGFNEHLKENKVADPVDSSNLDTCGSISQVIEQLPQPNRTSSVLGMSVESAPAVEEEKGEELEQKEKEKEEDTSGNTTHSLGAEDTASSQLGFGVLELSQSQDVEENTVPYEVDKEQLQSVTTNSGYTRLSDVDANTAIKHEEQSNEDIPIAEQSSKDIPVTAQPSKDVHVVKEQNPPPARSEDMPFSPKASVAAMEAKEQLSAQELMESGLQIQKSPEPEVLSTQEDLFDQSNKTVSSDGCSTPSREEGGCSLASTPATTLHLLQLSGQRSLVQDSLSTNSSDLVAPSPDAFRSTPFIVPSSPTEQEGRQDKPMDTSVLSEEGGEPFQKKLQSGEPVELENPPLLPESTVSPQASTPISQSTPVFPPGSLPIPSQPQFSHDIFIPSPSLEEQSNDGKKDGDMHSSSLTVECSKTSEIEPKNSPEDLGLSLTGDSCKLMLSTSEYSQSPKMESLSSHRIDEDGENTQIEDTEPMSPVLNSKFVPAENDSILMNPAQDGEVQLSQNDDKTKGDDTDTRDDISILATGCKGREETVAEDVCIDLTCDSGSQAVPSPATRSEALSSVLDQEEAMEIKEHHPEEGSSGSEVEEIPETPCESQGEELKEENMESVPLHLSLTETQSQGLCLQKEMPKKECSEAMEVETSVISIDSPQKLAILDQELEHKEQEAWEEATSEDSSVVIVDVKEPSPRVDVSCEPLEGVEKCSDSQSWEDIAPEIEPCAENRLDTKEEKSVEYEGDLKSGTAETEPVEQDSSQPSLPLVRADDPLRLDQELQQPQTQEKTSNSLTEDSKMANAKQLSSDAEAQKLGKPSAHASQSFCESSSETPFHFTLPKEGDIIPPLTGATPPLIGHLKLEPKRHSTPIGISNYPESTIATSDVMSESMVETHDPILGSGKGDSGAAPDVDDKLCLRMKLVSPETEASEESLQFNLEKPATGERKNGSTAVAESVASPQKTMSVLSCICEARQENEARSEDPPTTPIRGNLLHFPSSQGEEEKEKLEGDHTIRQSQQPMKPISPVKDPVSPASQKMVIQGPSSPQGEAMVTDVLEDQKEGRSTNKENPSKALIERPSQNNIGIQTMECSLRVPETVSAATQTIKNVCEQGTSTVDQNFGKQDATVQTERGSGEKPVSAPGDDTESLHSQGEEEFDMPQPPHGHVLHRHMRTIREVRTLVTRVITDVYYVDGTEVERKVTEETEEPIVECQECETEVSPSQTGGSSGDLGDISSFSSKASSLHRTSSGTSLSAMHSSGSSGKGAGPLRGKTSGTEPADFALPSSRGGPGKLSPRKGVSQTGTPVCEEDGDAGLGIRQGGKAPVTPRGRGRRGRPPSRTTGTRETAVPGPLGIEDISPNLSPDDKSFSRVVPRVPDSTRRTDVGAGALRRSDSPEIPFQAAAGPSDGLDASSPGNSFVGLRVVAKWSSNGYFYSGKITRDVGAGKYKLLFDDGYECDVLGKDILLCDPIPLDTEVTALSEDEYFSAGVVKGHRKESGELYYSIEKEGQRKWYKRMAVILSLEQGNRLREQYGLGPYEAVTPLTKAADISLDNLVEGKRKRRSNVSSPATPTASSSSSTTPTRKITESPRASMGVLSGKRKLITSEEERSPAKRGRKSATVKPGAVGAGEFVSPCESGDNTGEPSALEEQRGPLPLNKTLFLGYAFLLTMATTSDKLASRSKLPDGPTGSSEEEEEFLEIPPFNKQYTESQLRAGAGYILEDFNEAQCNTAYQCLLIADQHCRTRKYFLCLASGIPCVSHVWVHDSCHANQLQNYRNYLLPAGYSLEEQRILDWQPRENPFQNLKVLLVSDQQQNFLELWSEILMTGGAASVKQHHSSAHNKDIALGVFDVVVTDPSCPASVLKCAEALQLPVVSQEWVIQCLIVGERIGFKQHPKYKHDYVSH", "thermal stability z-score": -0.0759}
{"target": "EXOC6 (UniProt Q8TAG9)", "sequence (Q8TAG9 whole entry)": "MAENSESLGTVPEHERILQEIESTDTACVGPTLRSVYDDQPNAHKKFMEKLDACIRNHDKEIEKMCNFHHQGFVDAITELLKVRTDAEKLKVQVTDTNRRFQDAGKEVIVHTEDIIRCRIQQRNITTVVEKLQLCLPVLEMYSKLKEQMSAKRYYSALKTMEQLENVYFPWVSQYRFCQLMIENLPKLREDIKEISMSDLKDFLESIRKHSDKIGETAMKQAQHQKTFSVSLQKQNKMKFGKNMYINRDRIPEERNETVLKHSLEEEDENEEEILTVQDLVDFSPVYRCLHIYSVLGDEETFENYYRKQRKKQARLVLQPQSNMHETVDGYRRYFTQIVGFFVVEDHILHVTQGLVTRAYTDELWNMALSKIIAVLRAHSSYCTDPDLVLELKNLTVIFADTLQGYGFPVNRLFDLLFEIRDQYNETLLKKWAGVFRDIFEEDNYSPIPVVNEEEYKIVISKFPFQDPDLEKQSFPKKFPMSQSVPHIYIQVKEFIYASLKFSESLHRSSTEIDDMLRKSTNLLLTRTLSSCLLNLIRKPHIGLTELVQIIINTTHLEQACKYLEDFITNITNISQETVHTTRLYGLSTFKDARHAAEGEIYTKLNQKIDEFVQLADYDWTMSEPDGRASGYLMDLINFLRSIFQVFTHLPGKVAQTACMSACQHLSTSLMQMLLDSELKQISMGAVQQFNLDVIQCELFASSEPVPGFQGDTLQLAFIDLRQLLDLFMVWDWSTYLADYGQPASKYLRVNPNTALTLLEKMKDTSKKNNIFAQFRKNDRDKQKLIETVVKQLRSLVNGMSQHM", "thermal stability z-score": -0.201}
{"target": "NMD3 (UniProt Q96D46)", "thermal stability z-score": -0.0507}
{"target": "FGD4 (UniProt Q96M96)", "thermal stability z-score": -0.203}
{"target": "GALNS (UniProt P34059)", "thermal stability z-score": 0.274}
{"target": "NPR1 (UniProt P16066)", "thermal stability z-score": 0.119}
{"target": "PARP1 (UniProt P09874)", "thermal stability z-score": -2.03}
{"target": "GNPTAB (UniProt Q3T906)", "thermal stability z-score": -0.467}
{"target": "PDE12 (UniProt Q6L8Q7)", "sequence (Q6L8Q7 whole entry)": "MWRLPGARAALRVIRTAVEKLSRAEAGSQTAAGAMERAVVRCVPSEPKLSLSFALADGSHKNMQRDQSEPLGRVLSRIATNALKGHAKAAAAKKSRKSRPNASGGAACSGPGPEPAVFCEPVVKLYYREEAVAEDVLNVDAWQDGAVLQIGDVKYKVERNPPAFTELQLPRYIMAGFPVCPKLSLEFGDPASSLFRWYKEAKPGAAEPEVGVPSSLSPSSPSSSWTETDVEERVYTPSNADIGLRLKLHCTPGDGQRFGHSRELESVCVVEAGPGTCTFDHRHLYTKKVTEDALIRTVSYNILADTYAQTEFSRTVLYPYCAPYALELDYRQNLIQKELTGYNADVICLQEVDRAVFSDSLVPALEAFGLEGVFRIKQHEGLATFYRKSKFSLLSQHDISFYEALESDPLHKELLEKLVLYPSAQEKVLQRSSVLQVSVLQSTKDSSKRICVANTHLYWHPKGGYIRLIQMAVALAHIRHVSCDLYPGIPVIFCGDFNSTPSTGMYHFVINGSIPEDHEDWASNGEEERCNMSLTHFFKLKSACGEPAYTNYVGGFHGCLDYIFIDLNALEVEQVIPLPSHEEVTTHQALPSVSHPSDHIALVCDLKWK", "thermal stability z-score": -0.746}
{"target": "AP3M1 (UniProt Q9Y2T2)", "sequence (Q9Y2T2 whole entry)": "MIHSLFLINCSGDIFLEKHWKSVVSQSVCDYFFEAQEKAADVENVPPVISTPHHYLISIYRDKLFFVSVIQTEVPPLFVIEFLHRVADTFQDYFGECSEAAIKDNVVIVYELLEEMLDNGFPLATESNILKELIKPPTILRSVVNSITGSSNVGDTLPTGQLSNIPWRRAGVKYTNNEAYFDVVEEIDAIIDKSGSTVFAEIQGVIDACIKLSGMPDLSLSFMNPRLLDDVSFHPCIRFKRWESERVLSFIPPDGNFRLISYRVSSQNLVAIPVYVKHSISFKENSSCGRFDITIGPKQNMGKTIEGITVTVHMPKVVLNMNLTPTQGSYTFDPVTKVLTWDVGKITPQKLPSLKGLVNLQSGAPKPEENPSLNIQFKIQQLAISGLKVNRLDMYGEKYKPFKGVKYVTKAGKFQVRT", "thermal stability z-score": 0.418}
{"target": "NAMPT (UniProt P43490)", "thermal stability z-score": -0.494}
{"target": "DCAKD (UniProt Q8WVC6)", "thermal stability z-score": 0.214}
{"target": "GTPBP2 (UniProt Q9BX10)", "thermal stability z-score": 0.0134}
{"target": "FAM49B (UniProt Q9NUQ9)", "thermal stability z-score": 0.0541}
{"target": "TAOK1 (UniProt Q7L7X3)", "thermal stability z-score": -0.658}
{"target": "EIF3G (UniProt O75821)", "thermal stability z-score": 0.711}
{"target": "PAM (UniProt P19021)", "thermal stability z-score": -1.17}
{"target": "C2CD2 (UniProt Q9Y426)", "thermal stability z-score": 0.234}
{"target": "PABPC4 (UniProt Q13310)", "thermal stability z-score": -0.478}
{"target": "CAMSAP2 (UniProt Q08AD1)", "thermal stability z-score": -1.05}
{"target": "GSTT2|GSTT2B|EM", "thermal stability z-score": -0.23}
{"target": "OSBPL1A (UniProt Q9BXW6)", "thermal stability z-score": 0.355}
{"target": "TMUB2 (UniProt Q71RG4)", "thermal stability z-score": 2.27}
{"target": "TMX3 (UniProt Q96JJ7)", "sequence (Q96JJ7 whole entry)": "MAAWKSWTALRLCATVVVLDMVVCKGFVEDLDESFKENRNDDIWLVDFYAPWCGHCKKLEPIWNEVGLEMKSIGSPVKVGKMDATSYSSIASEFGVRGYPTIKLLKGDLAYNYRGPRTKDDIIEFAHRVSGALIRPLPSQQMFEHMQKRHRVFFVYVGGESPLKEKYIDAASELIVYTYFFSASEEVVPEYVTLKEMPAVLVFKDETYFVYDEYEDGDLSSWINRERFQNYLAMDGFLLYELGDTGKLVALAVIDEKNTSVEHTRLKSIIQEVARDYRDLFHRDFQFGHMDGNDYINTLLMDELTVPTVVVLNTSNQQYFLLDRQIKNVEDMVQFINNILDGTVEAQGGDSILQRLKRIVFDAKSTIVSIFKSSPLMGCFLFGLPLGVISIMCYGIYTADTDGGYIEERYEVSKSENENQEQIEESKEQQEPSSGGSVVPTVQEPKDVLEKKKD", "thermal stability z-score": 1.29}
{"target": "RFC5 (UniProt P40937)", "thermal stability z-score": 0.971}
{"target": "PPM1F (UniProt P49593)", "thermal stability z-score": -0.617}
{"target": "BZW2 (UniProt Q9Y6E2)", "thermal stability z-score": -0.183}
{"target": "PSMD10 (UniProt O75832)", "thermal stability z-score": -0.327}
{"target": "GHITM (UniProt Q9H3K2)", "thermal stability z-score": -0.0999}
{"target": "ADD3 (UniProt Q9UEY8)", "thermal stability z-score": -0.362}
{"target": "MFSD12 (UniProt Q6NUT3)", "thermal stability z-score": 1.14}
{"target": "RWDD1 (UniProt Q9H446)", "thermal stability z-score": 0.471}
{"target": "AK2 (UniProt P54819)", "thermal stability z-score": -0.84}
{"target": "SOD2 (UniProt P04179)", "thermal stability z-score": 0.195}
{"target": "TMEM126A (UniProt Q9H061)", "thermal stability z-score": 0.231}
{"target": "VLDLR (UniProt P98155)", "thermal stability z-score": -0.86}
{"target": "FAM173A (UniProt Q9BQD7)", "thermal stability z-score": -0.445}
{"target": "RTCB (UniProt Q9Y3I0)", "thermal stability z-score": -1.21}
{"target": "FLNC (UniProt Q14315)", "thermal stability z-score": 0.567}
{"target": "SLC7A6OS (UniProt Q96CW6)", "thermal stability z-score": -0.000281}
{"target": "TRMT61B (UniProt Q9BVS5)", "thermal stability z-score": -0.271}
{"target": "TRIP10 (UniProt Q15642)", "thermal stability z-score": -0.0864}
{"target": "TARBP1 (UniProt Q13395)", "thermal stability z-score": 0.121}
{"target": "ANXA5 (UniProt P08758)", "thermal stability z-score": 0.601}
{"target": "NAA16 (UniProt Q6N069)", "thermal stability z-score": -0.173}
{"target": "NDUFB11 (UniProt Q9NX14)", "thermal stability z-score": 0.94}
{"target": "COPB2 (UniProt P35606)", "thermal stability z-score": 0.238}
{"target": "GCNT2 (UniProt Q8N0V5)", "thermal stability z-score": -0.125}
{"target": "STBD1 (UniProt O95210)", "thermal stability z-score": 0.149}
{"target": "HEATR6 (UniProt Q6AI08)", "thermal stability z-score": 0.868}
{"target": "AHCYL1 (UniProt O43865)", "thermal stability z-score": -6.61}
{"target": "CCDC117 (UniProt Q8IWD4)", "thermal stability z-score": -0.388}
{"target": "UFL1 (UniProt O94874)", "thermal stability z-score": 0.145}
{"target": "GNL3L (UniProt Q9NVN8)", "thermal stability z-score": -0.0324}
{"target": "RPL26 (UniProt P61254)", "thermal stability z-score": -0.347}
{"target": "UQCRQ (UniProt O14949)", "thermal stability z-score": 1.28}
{"target": "CXORF38 (UniProt Q8TB03)", "thermal stability z-score": -1.87}
{"target": "RIF1 (UniProt Q5UIP0)", "thermal stability z-score": -0.353}
{"target": "POLB (UniProt P06746)", "thermal stability z-score": -0.111}
{"target": "SNX6 (UniProt Q9UNH7)", "thermal stability z-score": 0.277}
{"target": "P4HA2 (UniProt O15460)", "thermal stability z-score": 0.573}
{"target": "DHX34 (UniProt Q14147)", "thermal stability z-score": -0.164}
{"target": "IKBKB (UniProt O14920)", "thermal stability z-score": -0.426}
{"target": "RHOA (UniProt P61586)", "thermal stability z-score": 0.103}
{"compound": "NC(=O)CCCCC1CCSS1 [lipoamide]", "assay": "thermal stability z-score vs DMSO; higher = more thermally stabilized by treatment", "settings": "HeLa; lipoamide concentration 100 µM; arsenate co-treatment: 1 mM arsenate 1 h", "method": "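Cellular thermal proteome profiling in HeLa cells. Cells were treated with 100 µM lipoamide for 1 h, with or without 1 mM arsenate for a further 1 h, then heated to ten temperatures (37-66.3 °C), and soluble protein was quantified by TMT mass spectrometry relative to 0.1% DMSO controls. The thermal stability score (sum of log2 fold changes minus the abundance score) was transformed to a z-score; mean of n = 3 experiments.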"}
{"target": "KIAA1522 (UniProt Q9P206)", "thermal stability z-score": -0.388}
{"target": "ELP6 (UniProt Q0PNE2)", "thermal stability z-score": 0.56}
{"target": "LSM4 (UniProt Q9Y4Z0)", "thermal stability z-score": 0.426}
{"target": "TOLLIP (UniProt Q9H0E2)", "thermal stability z-score": 0.239}
{"target": "TXNDC15 (UniProt Q96J42)", "thermal stability z-score": -1.92}
{"target": "PGP (UniProt A6NDG6)", "thermal stability z-score": 0.339}
{"target": "GOLGA4 (UniProt Q13439)", "thermal stability z-score": -0.45}
{"target": "TP53BP1 (UniProt Q12888)", "thermal stability z-score": 1.4}
{"target": "EXOC6 (UniProt Q8TAG9)", "thermal stability z-score": -0.242}
{"target": "NMD3 (UniProt Q96D46)", "thermal stability z-score": 0.204}
{"target": "FGD4 (UniProt Q96M96)", "thermal stability z-score": 0.0849}
{"target": "GALNS (UniProt P34059)", "thermal stability z-score": 0.346}
{"target": "NPR1 (UniProt P16066)", "thermal stability z-score": -0.594}
{"target": "PARP1 (UniProt P09874)", "thermal stability z-score": -0.643}
{"target": "GNPTAB (UniProt Q3T906)", "thermal stability z-score": -2.42}
{"target": "PDE12 (UniProt Q6L8Q7)", "thermal stability z-score": 0.274}
{"target": "AP3M1 (UniProt Q9Y2T2)", "thermal stability z-score": 0.0419}
{"target": "NAMPT (UniProt P43490)", "thermal stability z-score": 0.551}
{"target": "DCAKD (UniProt Q8WVC6)", "thermal stability z-score": -0.963}
{"target": "GTPBP2 (UniProt Q9BX10)", "thermal stability z-score": 0.122}
{"target": "FAM49B (UniProt Q9NUQ9)", "thermal stability z-score": 0.4}
{"target": "TAOK1 (UniProt Q7L7X3)", "thermal stability z-score": -0.503}
{"target": "EIF3G (UniProt O75821)", "thermal stability z-score": 0.0353}
{"target": "PAM (UniProt P19021)", "thermal stability z-score": -1.15}
{"target": "C2CD2 (UniProt Q9Y426)", "thermal stability z-score": -0.506}
{"target": "PABPC4 (UniProt Q13310)", "thermal stability z-score": 0.322}
{"target": "CAMSAP2 (UniProt Q08AD1)", "thermal stability z-score": -0.52}
{"target": "GSTT2|GSTT2B|EM", "thermal stability z-score": 0.517}
{"target": "OSBPL1A (UniProt Q9BXW6)", "thermal stability z-score": -1.13}
{"target": "TMUB2 (UniProt Q71RG4)", "thermal stability z-score": 1.9}
{"target": "TMX3 (UniProt Q96JJ7)", "thermal stability z-score": -0.503}
{"target": "RFC5 (UniProt P40937)", "thermal stability z-score": -0.341}
{"target": "PPM1F (UniProt P49593)", "thermal stability z-score": -0.361}
{"target": "BZW2 (UniProt Q9Y6E2)", "thermal stability z-score": 0.428}
{"target": "PSMD10 (UniProt O75832)", "thermal stability z-score": -0.817}
